Experimental data: PMC9168183 (Redox Biology, 2022)

Molecular target: T1, thioredoxin reductase (TrxR) (Rattus norvegicus, UniProt O89049)
T1 sequence (O89049 1-499): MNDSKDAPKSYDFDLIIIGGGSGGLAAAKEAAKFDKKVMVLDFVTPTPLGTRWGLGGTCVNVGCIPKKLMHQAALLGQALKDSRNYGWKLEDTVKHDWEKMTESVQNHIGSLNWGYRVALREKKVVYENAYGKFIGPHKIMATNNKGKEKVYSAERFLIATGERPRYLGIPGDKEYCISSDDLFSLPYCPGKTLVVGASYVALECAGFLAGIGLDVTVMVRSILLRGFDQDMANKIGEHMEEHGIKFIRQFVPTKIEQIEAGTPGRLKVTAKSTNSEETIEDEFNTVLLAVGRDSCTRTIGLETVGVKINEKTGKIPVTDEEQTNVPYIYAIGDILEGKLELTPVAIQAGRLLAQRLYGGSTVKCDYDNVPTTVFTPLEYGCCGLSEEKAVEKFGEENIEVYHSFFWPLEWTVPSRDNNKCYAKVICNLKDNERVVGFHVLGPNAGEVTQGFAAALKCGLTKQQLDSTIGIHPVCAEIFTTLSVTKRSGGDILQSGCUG
Experiment: DTNB assay with isolated TrxR, % inhibition at […]
Format: biochemical
Conditions: read-out: Isolated TrxR (Inhibition %)

Row | Structure (SMILES) | inhibition at 50 µM [%]
1 | C=C1C(=O)O[C@@H]2C[C@@]3(C)CCCC(=C)[C@@H]3C[C@H]12 [compound 5, Isoalantolactone] | 79.7
2 | O=C(/C=C/c1ccc(O)cc1)c1ccc(O)cc1O [compound 4, Isoliquiritigenin] | 76.9
